Test [1] concerns the target Poly (ADP-Ribose) Polymerase (PADPRP). As to conditions: cited from earlier work; for pIC50: PADPRP Inhibitors, Table 1.
For test [2], the system named is human fibroblast cells (W138 cells). Put plainly: Extension of lifespan and proliferative capacity of human fibroblast cells in culture (cumulative population doublings). The test is classed as cell-based. The source says:
At the time of subdivision, the media was aspirated, and the cells were rinsed with phosphate buffered saline (PBS) and then trypsinized. […] This process was repeated every ~7 days until the cells appeared to stop dividing.

Test [3] deals with human fibroblasts. As to conditions: Rattan and Clark, 1994; cited from earlier work.

For orientation: pIC50 means the IC50 on a negative log10 scale, so that one unit is a factor of ten.

pIC50: −log10 of the molar value.

With `NC(=O)c1ccccc1O` [2-Hydroxybenzamide], in test [1], the pIC50 was 4.09.

Take `CCCCC/C=C\C/C=C\C/C=C\C/C=C\CCCC(=O)O` [Arachidonic acid]: the pIC50 in test [1] is 4.36.

Regarding `NC(=O)c1cccc(O)c1` [3-Hydroxybenzamide], in test [1], the pIC50 is 5.04.

For the compound `Cc1cc(=O)c2ccccc2o1` [2-Methyl-1,4-benzopyrone], the pIC50 in test [1] is 4.35.

With `Oc1cccc2c(O)nccc12` [1,5-Dihydroxyisoquinoline], the “proliferative lifespan (maximum achievable cumulative population doublings)” value in test [2] (100 μM (DMSO concentration 0.1%), W138 cells, FIG. 2) was “extension of their proliferative lifespan”. Also, the “proliferative capacity of treated cells” value in test [2] (same procedure, FIG. 2, concentration not given) is reported as “increased proliferative capacity”.

With `O=c1[nH]ncc2ccccc12` [1(2H)-Phthalazinone], the negative logarithm of the IC50 (pIC50) in test [1] was 4.92.

Consider `O=c1[nH]cc(I)c(=O)[nH]1` [5-Iodouracil], for which the pIC50 in test [1] is 4.15.

Consider `c1coc(CNc2ncnc3[nH]cnc23)c1` [kinetin], for which the “PADPRP inhibition (in words)” value in test [1] (Althaus and Richter, 1987) is on record as “weak inhibitor”. Besides, in test [3], the “cell culture lifespan in terms of maximum proliferative capacity in vitro” value is on record as “not accompanied by an increase in cell culture lifespan” and the “onset of aging characteristics” value is “delay the onset of aging characteristics”.

In the case of `NC(=O)c1cccc(F)c1` [3-Fluorobenzamide], the negative logarithm of the IC50 (pIC50) in test [1] is 4.70.

Take `NC(=O)c1cccnc1` [Nicotinamide]: in test [1], the pIC50 was 3.68.

Consider `Nc1cccc2c(=O)[nH][nH]c(=O)c12` [3-Aminophthalhydrazide], for which the pIC50 in test [1] is 4.64.

In the case of `O=c1[nH][nH]c(=O)c2c([N+](=O)[O-])cccc12` [3-Nitrophthalhydrazide], the pIC50 in test [1] was 4.14.

For `CCCCC/C=C\C/C=C\CCCCCCCC(=O)O` [Linoleic acid], the pIC50 in test [1] was 4.32.

Regarding `O=c1[nH]c(=O)n([C@@H]2O[C@H](CO)[C@@H](O)[C@H]2O)cc1I` [5-Iodouridine], the negative logarithm of the IC50 (pIC50) in test [1] is 4.37.

Consider `CC(=O)Nc1cccc(C(N)=O)c1` [3-Acetamidobenzamide], for which the negative-log IC50 (pIC50) in test [1] is 4.92.

In the case of `CCCCCCCC/C=C\CCCCCCCC(=O)O` [Oleic acid], in test [1], the pIC50 was 4.09.

On to `Oc1ccnc2ccccc12` [4-Hydroxyquinoline], for which the pIC50 in test [1] was 4.10.

Turning to `NC(=O)c1ccccc1` [Benzamide], in test [1], the negative-log IC50 (pIC50) is 4.66.

Take `NC(=O)c1cccc(C(N)=O)c1` [m-Phthalamide]: in test [1], the pIC50 was 4.30.

On to `Cc1cccc(C(N)=O)c1` [3-Methylbenzamide], for which, in test [1], the pIC50 is 4.72.

`COc1ccccc1C(N)=O` [2-Methoxybenzamide]: the negative logarithm of the IC50 (pIC50) in test [1] was 4.70.

For the compound `O=c1[nH]c2ccc([N+](=O)[O-])cc2c2ccccc12` [2-Nitro-6(5H)-phenanthridinone], the pIC50 in test [1] was 6.46.

`CC(=O)Nc1ccc(O)c(C(N)=O)c1` [5-Acetamidosalicylamide]: in test [1], the pIC50 is 4.35.

`O=c1[nH]c2ccccc2c2ccccc12` [2H-Benz[c]isoquinolin-1-one]: the pIC50 in test [1] is 6.52.

As for `NC(=O)c1cccc(N)c1` [3-Aminobenzamide], the “lifespan of treated cells versus control cells” value in test [2] (10 μM 3-AB, FIG. 1) was “no effect”; in test [2] (100 μM 3-AB, FIG. 1) it was “longer lifespan than control cells”. For the same compound, the “lifespan and proliferative capacity of treated cells” value in test [2] (1 mM 3-AB, FIG. 1) was “dramatic increase in lifespan and proliferative capacity”. The “maximum achievable cumulative population doublings” value in test [2] (1 mM 3-AB, W138 cells, FIG. 1) is “significant increase”. Further, the “days in culture at which cells were still dividing” value in test [2] (1 mM 3-AB, control cells stopped dividing after about 40 days) is given as more than 60 days.

Regarding `Cc1cc(O)c2ccccc2n1` [4-Hydroxy-2-methylquinoline], the pIC50 in test [1] is 4.13.

Turning to `O=c1[nH][nH]c(=O)c2ccccc12` [2,3-Dihydro-1,4-phthalazinedione], in test [1], the pIC50 was 4.52.

As to `O=c1[nH]c(S)nc2ccccc12` [2-Mercapto-4(3H)-quinazolinone], the negative-log IC50 (pIC50) in test [1] is 4.36.

These data come from US5589483A, “Isoquinoline poly (ADP-ribose) polymerase inhibitors to treat skin diseases associated with cellular senescence” (priority 1994, dated 1996).
